Laboratory results from patent US11202807B2, “Bacterial species” (WAGENINGEN UNIVERSITEIT, priority 2016, dated 2021).
In brackets after ≈: the same amount, converted by molar mass. Where two headings read alike, the source gives them in different places.

System: strain Pyt^T
Test: Antibiotic resistance by the Etest method (MIC)
Type: cell-based, Akkermansia glycaniphilus
Conditions: for MIC: read-out: Minimal Inhibitory Concentration (MIC); for Level of resistance / sensitivity of strain Pyt^T to the antibiotic: EUCAST breakpoint table for Gram-negative anaerobes (Version 5.0)
Method: Antibiotic resistance was determined using the Etest method for both ampicillin and vancomycin (bioMérieux, Marcy l'Étoile, France). The minimal inhibitory concentration (MIC) was determined after 48 hours of incubation. In more detail, strain Pyt^T was grown in mucin media and after reaching stationary phase 100 ul was plated onto BHI plates supplemented with 0.5% (v/v) hog gastric mucin (Type III, Sigma), and 0.05% (w/v) of cysteine-HCL (Sigma-ALdrich). Plates were incubated for 24-48 hours under strictly anaerobic conditions. The level of resistance was determined using the European Committee on Antimicrobial Susceptibility Testing (EUCAST) breakpoint table for interpretation of MICs for Gram-negative anaerobes (Version 5.0, valid from 2015-01-01).

Compound | MIC (Etest, BHI plates with 0.5% hog gastric mucin and 0.05% cysteine-HCl, strictly anaerobic, read after 48 hours) [µg/mL] | Level of resistance / sensitivity of strain Pyt^T to the antibiotic (Etest) | MIC (48 h) [µg/mL]
CC1(C)S[C@@H]2[C@H](NC(=O)[C@H](N)c3ccccc3)C(=O)N2[C@H]1C(=O)O [ampicillin] | 32 (≈ 91.6 µM) | relatively resistant | –
O=C(N[C@H](CO)[C@H](O)c1ccc([N+](=O)[O-])cc1)C(Cl)Cl [chloramphenicol] | – | sensitive | –
Cc1ncc([N+](=O)[O-])n1CCO [metronidazole] | – | sensitive | –
CN[C@H](CC(C)C)C(=O)N[C@H]1C(=O)N[C@@H](CC(N)=O)C(=O)N[C@H]2C(=O)N[C@H]3C(=O)N[C@H](C(=O)N[C@H](C(=O)O)c4cc(O)cc(O)c4-c4cc3ccc4O)[C@H](O)c3ccc(c(Cl)c3)Oc3cc2cc(c3O[C@@H]2O[C@H](CO)[C@@H](O)[C@H](O)[C@H]2O[C@H]2C[C@](C)(N)[C@H](O)[C@H](C)O2)Oc2ccc(cc2Cl)[C@H]1O [vancomycin] | – | relatively resistant | 24 (≈ 16.6 µM)
cholistin | – | sensitive | –
